Laboratory results as given in ChEMBL document CHEMBL1201862, “PubChem BioAssay data set” (2004).
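Each compound was tested at five concentrations against cells in 96-well plates for 48 hours. At the GI50, growth is halved.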 Active and inactive are the calls of the source. Rule as the data show it: active = GI50 up to about 1.1 µM and inactive = higher.

How the values were obtained:
Assay in all cases: DTP human tumour cell line panel, 48 h
COLO 205 = system: COLO 205
A549 = system: A549
TK-10 = system: TK-10
HCT-15 = system: HCT-15
HCT-116 = system: HCT-116
MOLT-4 = system: MOLT-4
T47D = system: T47D
SK-MEL-5 = system: SK-MEL-5
K562 = system: K562
KM12 = system: KM12
CCRF-CEM = system: CCRF-CEM
Hs-578T = system: Hs-578T
MDA-MB-231 = system: MDA-MB-231
NCI-H460 = system: NCI-H460
DU-145 = system: DU-145
SF-539 = system: SF-539
RXF 393 = system: RXF 393
NCI-H23 = system: NCI-H23
SK-OV-3 = system: SK-OV-3
CAKI-1 = system: CAKI-1

COc1ccc(C2SC(=N)Nc3c2c(C)nn3C(=O)c2ccncc2)cc1 (stereo not given)
GI50 (COLO 205): 57.7 µM (inactive)
GI50 (A549): > 100 µM (inactive)
GI50 (TK-10): > 100 µM (inactive)
GI50 (HCT-15): > 100 µM
GI50 (HCT-116): > 100 µM (inactive)
GI50 (MOLT-4): 44.5 µM (inactive)
GI50 (T47D): 45.5 µM (inactive)
GI50 (SK-MEL-5): 45.7 µM (inactive)
GI50 (K562): 64.7 µM (inactive)
GI50 (KM12): > 100 µM (inactive)
GI50 (CCRF-CEM): 29.4 µM (inactive)
GI50 (Hs-578T): > 100 µM (inactive)
GI50 (MDA-MB-231): > 100 µM (inactive)
GI50 (NCI-H460): 42.3 µM (inactive)
GI50 (DU-145): > 100 µM (inactive)
GI50 (SF-539): > 100 µM (inactive)
GI50 (RXF 393): > 100 µM (inactive)
GI50 (NCI-H23): > 100 µM (inactive)
GI50 (SK-OV-3): > 100 µM (inactive)

Cc1ccc(S(=O)(=O)Nc2ccccc2C(=O)c2ccc(C)c(C)c2)cc1
GI50 (COLO 205): > 100 µM (inactive)
GI50 (A549): > 100 µM (inactive)
GI50 (TK-10): > 100 µM (inactive)
GI50 (HCT-15): > 100 µM
GI50 (HCT-116): > 100 µM (inactive)
GI50 (T47D): 71.1 µM (inactive)
GI50 (SK-MEL-5): 35 µM (inactive)
GI50 (KM12): 63.4 µM (inactive)
GI50 (Hs-578T): 60.5 µM (inactive)
GI50 (MDA-MB-231): > 100 µM (inactive)
GI50 (NCI-H460): 80.2 µM (inactive)
GI50 (CAKI-1): > 100 µM (inactive)
GI50 (DU-145): > 100 µM (inactive)
GI50 (SF-539): > 100 µM (inactive)
GI50 (RXF 393): > 100 µM (inactive)
GI50 (NCI-H23): > 100 µM (inactive)
GI50 (SK-OV-3): > 100 µM (inactive)

COC(=O)[C@H](Cc1c[nH]c2ccccc12)NC(=O)c1ccccc1I
GI50 (COLO 205): 17.5 µM (inactive)
GI50 (A549): > 100 µM (inactive)
GI50 (TK-10): 24.4 µM (inactive)
GI50 (HCT-15): > 100 µM
GI50 (HCT-116): 16.3 µM (inactive)
GI50 (MOLT-4): 17.5 µM (inactive)
GI50 (T47D): 22.6 µM (inactive)
GI50 (SK-MEL-5): 16.1 µM (inactive)
GI50 (K562): 29.3 µM (inactive)
GI50 (KM12): 41.4 µM (inactive)
GI50 (Hs-578T): 9.84 µM (inactive)
GI50 (MDA-MB-231): 29.1 µM (inactive)
GI50 (NCI-H460): 24.8 µM (inactive)
GI50 (CAKI-1): 20.7 µM (inactive)
GI50 (DU-145): 21.8 µM (inactive)
GI50 (RXF 393): 18.7 µM (inactive)
GI50 (SK-OV-3): 33.6 µM (inactive)

C/C=C\C(CC(=O)NCCC1CN(C(=O)c2ccccc2)c2ccccc21)CC(=O)OC (stereo not given)
GI50 (COLO 205): > 100 µM (inactive)
GI50 (A549): > 100 µM (inactive)
GI50 (TK-10): > 100 µM (inactive)
GI50 (HCT-15): > 100 µM
GI50 (HCT-116): > 100 µM (inactive)
GI50 (MOLT-4): > 100 µM (inactive)
GI50 (T47D): > 100 µM (inactive)
GI50 (SK-MEL-5): 97.3 µM (inactive)
GI50 (K562): > 100 µM (inactive)
GI50 (KM12): > 100 µM (inactive)
GI50 (Hs-578T): > 100 µM (inactive)
GI50 (MDA-MB-231): > 100 µM (inactive)
GI50 (NCI-H460): > 100 µM (inactive)
GI50 (CAKI-1): > 100 µM (inactive)
GI50 (DU-145): > 100 µM (inactive)
GI50 (RXF 393): > 100 µM (inactive)
GI50 (NCI-H23): > 100 µM (inactive)
GI50 (SK-OV-3): > 100 µM (inactive)

CN(CCC(=O)N1CC(CCl)c2ccc([N+](=O)[O-])cc21)CCC(=O)N1CC(CCl)c2ccc([N+](=O)[O-])cc21 (stereo not given)
GI50 (COLO 205): 15.4 µM (inactive)
GI50 (A549): 36.6 µM (inactive)
GI50 (TK-10): 10.4 µM (inactive)
GI50 (HCT-15): 13.2 µM
GI50 (HCT-116): 12.6 µM (inactive)
GI50 (MOLT-4): 4.25 µM (inactive)
GI50 (T47D): 25.1 µM (inactive)
GI50 (SK-MEL-5): 12.3 µM (inactive)
GI50 (K562): 14.3 µM (inactive)
GI50 (KM12): 4.72 µM (inactive)
GI50 (CCRF-CEM): 15.9 µM (inactive)
GI50 (Hs-578T): 2.85 µM (inactive)
GI50 (MDA-MB-231): 16.7 µM (inactive)
GI50 (NCI-H460): 24.7 µM (inactive)
GI50 (CAKI-1): 18.7 µM (inactive)
GI50 (DU-145): 31.5 µM (inactive)
GI50 (SF-539): 14.6 µM (inactive)
GI50 (NCI-H23): 14.7 µM (inactive)
GI50 (SK-OV-3): 29.6 µM (inactive)

Cc1ccc(S(=O)(=O)OC2C(C3COC(C)(C)O3)OC3OC(C)(C)OC32)cc1 (stereo not given)
GI50 (A549): > 100 µM (inactive)
GI50 (TK-10): > 100 µM (inactive)
GI50 (HCT-15): > 100 µM
GI50 (HCT-116): > 100 µM (inactive)
GI50 (MOLT-4): > 100 µM (inactive)
GI50 (T47D): > 100 µM (inactive)
GI50 (SK-MEL-5): > 100 µM (inactive)
GI50 (K562): > 100 µM (inactive)
GI50 (KM12): > 100 µM (inactive)
GI50 (CCRF-CEM): > 100 µM (inactive)
GI50 (Hs-578T): > 100 µM (inactive)
GI50 (MDA-MB-231): > 100 µM (inactive)
GI50 (NCI-H460): > 100 µM (inactive)
GI50 (CAKI-1): > 100 µM (inactive)
GI50 (DU-145): > 100 µM (inactive)
GI50 (RXF 393): > 100 µM (inactive)
GI50 (NCI-H23): > 100 µM (inactive)

O=C(/N=C1/NCC(CN2CCN(c3ccccc3)CC2)O1)Nc1ccccc1 (stereo not given)
GI50 (COLO 205): > 100 µM (inactive)
GI50 (A549): > 100 µM (inactive)
GI50 (TK-10): > 100 µM (inactive)
GI50 (HCT-15): > 100 µM
GI50 (HCT-116): > 100 µM (inactive)
GI50 (MOLT-4): 93.1 µM (inactive)
GI50 (T47D): > 100 µM (inactive)
GI50 (SK-MEL-5): > 100 µM (inactive)
GI50 (K562): > 100 µM (inactive)
GI50 (KM12): > 100 µM (inactive)
GI50 (CCRF-CEM): > 100 µM (inactive)
GI50 (Hs-578T): > 100 µM (inactive)
GI50 (MDA-MB-231): > 100 µM (inactive)
GI50 (NCI-H460): > 100 µM (inactive)
GI50 (CAKI-1): > 100 µM (inactive)
GI50 (DU-145): > 100 µM (inactive)
GI50 (RXF 393): > 100 µM (inactive)
GI50 (NCI-H23): > 100 µM (inactive)
GI50 (SK-OV-3): > 100 µM (inactive)

COc1ccc(/C=N/n2c(=O)[nH]c3ccccc3c2=O)cc1
GI50 (COLO 205): > 100 µM (inactive)
GI50 (A549): > 100 µM (inactive)
GI50 (TK-10): > 100 µM (inactive)
GI50 (HCT-15): > 100 µM
GI50 (HCT-116): > 100 µM (inactive)
GI50 (MOLT-4): > 100 µM (inactive)
GI50 (T47D): > 100 µM (inactive)
GI50 (SK-MEL-5): > 100 µM (inactive)
GI50 (K562): > 100 µM (inactive)
GI50 (KM12): > 100 µM (inactive)
GI50 (CCRF-CEM): > 100 µM (inactive)
GI50 (Hs-578T): 36.4 µM (inactive)
GI50 (MDA-MB-231): > 100 µM (inactive)
GI50 (NCI-H460): > 100 µM (inactive)
GI50 (CAKI-1): > 100 µM (inactive)
GI50 (DU-145): > 100 µM (inactive)
GI50 (SF-539): > 100 µM (inactive)
GI50 (NCI-H23): > 100 µM (inactive)
GI50 (SK-OV-3): > 100 µM (inactive)
